Like-named read-outs stand apart in the source and are kept apart here.

Data set [1] has as its system renal ischemia-reperfusion injury in Wistar rats.
Protocol: Pathogen-free male Wistar rats weighting 250-300 g were used and treated in compliance with the “Guide for the Care and Use of Laboratory Animals” published by the US National Institutes of Health (NIH Publication NO. 85-23, revised 1996).
Rats were anesthetized with intramuscular injection of ketamine (25 mg/Kg) and xylazine hydrochloride (10 mg/Kg). After a midline laparotomy, the renal pedicles were identified and bilaterally occluded for a period of 45 min using nontraumatic microaneurysm clamps. The presence of ischemia was visually confirmed by observing blanching of the kidneys. Sham-operated rats were subjected to identical surgical procedures without causing renal ischemia by application of microaneurysm clamps. At the end of ischemia period the clamps were removed and renal reperfusion was established. All rats were killed 4 hours after the initiation of reperfusion.
Urine was collected during reperfusion, and at the end of the experiments blood samples were taken and analyzed for biochemical markers of renal impairment. Serum creatinine levels were measured as an indicator of glomerular function. Urine concentrations of Na^+ were determined and used in conjunction with serum Na^+ concentrations to estimate FENa which was used as a sensitive indicator of tubular function.
For histological assessment of renal ischemia-reperfusion injury, the rat kidneys were removed 4 hours after reperfusion, fixed in 10% formalin, embedded in paraffin, sectioned (5-μm thicknesses), and stained with haematoxylin and eosin. Tubular injury was identified by the presence of any of flattened tubular cells, loss of brush border, and cast formation. Ten high-powered fields (hpf's; ×400 magnification) from the outer medulla and corticomedullary junction were examined from each animal to determine the percentage of tubules showing evidence of injury and scored according to the following scale: 0, no injury; 1, less than 10%; 2, 10% to 25%; 3, 26% to 75%; 4, greater than 75%. The 10 scores were averaged to give the tubular injury score for each specimen.
Data set [2] deals with nitric oxide content of myocardium. The data set can be described thus: myocardial nitrite and nitrate content after ischemia-reperfusion. The class given is in vivo, rat. Particulars: 1 μg/kg pre-ischemic. How it is done: (§1) To determine whether parstatin (1-26) protects the heart by a mechanism involving nitric oxide synthase (NOS), rats were treated with L-NMA (15 μg/Kg, a general NOS inhibitor), with or without parstatin (1-26) (1 μg/Kg) prior to ischemia. […] The role of parstatin (1-26) in endothelial NOS activation was further evaluated by measuring the phosphorylation of Ser1177. In these experiments, the left ventricular free wall tissue was homogenized and immunoblot analysis was performed using an anti-phospho-endothelial NOS (Ser1177) primary antibody (Cell Signaling Technology, Danvers, Mass.). […] In addition, nitrite and nitrate content, a marker of endothelial NOS activity, was measured from both ischemic and non-ischemic tissues. Ischemia and 120 min reperfusion caused an increase in the production of NO in the ischemic tissue from the control group when compared to the sham group (FIG. 25D). […] Pre-ischemic treatment with parstatin (1-26) further increased NO content in the ischemic tissue by an additional 1.4-fold over control values and 2.0-fold over sham treated values.

Data set [3] has as its system myocardial ischemia-reperfusion injury in Sprague Dawley rats. The note with it: for reduction in infarct size: 1 μg/Kg IV bolus.
Protocol: Parstatin (1-41) was used in an in vivo rat model of cardiac ischemia and reperfusion, and in an in vitro isolated rat heart model of ischemia-reperfusion injury.
For in vivo infarct size studies, rats were anesthetized with pentobarbital sodium (50 mg/Kg) and heparin (1000 IU/Kg) and underwent 30 min of regional ischemia followed by 120 min of reperfusion. Parstatin (1-41) was administered-intravenously over 1 min starting 15 min prior to ischemia, or 15 min after the onset of ischemia, or 10 seconds after the onset of reperfusion in separate series of experiments (n=6/group).
To induce ischemia, ligature was positioned around the left main coronary artery and threaded through a plastic snare to permit reversible occlusion of the coronary artery. Coronary occlusion was induced by clamping the snare onto the heart and reperfusion was achieved by releasing the snare. At the end of reperfusion, the coronary artery was re-occluded and the risk zone was delineated by perfusion of 0.5% Evans' blue into the aortic cannula. Hearts were sectioned and incubated in 1% triphenyltetrazolium chloride in phosphate buffer for 15 min to define white necrotic tissue when fixed in 10% formalin for 24 h. Area at risk (AAR) and infarct-to-risk rations were determined by computerized planimetry using J-Image v.i.6 software (NIH, Bethesda, Mass.).
For in vivo infarct size/ischemia-reperfusion studies, rats were anesthetized with pentobarbital sodium (50 mg/Kg) and heparin (1000 IU/Kg) and underwent 30 min of regional ischemia followed by 120 min of reperfusion. Human hydrophobic parstatin (1-26) fragment was administered intravenously over 1 min at one of three time points: 1) starting 15 min prior to ischemia, 2) 15 min after the onset of ischemia, or 3) 10 seconds after the onset of reperfusion in a separate series of experiments (n=6/group).
Ischemia was induced by placement of a ligature around the left main coronary artery which was threaded through a plastic snare to permit reversible occlusion of the coronary artery. Coronary occlusion was induced by clamping the snare onto the heart and reperfusion was achieved by releasing the snare. At the end of reperfusion, the coronary artery was re-occluded and the risk zone was delineated by perfusion 0.5% Evans' blue into the aortic cannula.
Hearts were sectioned and incubated in 1% triphenyltetrazolium chloride in phosphate buffer for 15 min to define white necrotic tissue when fixed in 10% formalin for 24 h. Area at risk (AAR) and infarct-to-risk rations were determined by computerized planimetry using J-Image v.i.6 software (NIH, Bethesda, Mass.). The principal endpoint of these studies was infarct size expressed as a percentage of the area at risk.
The test system of data set [4] is cGMP content of myocardium. The experiment in a line: myocardial cGMP ELISA after ischemia-reperfusion. The class given is in vivo, rat. The note with it: 1 μg/kg, 120 min reperfusion. The protocol: To determine whether […] (1-26) protects the heart by a mechanism involving soluble guanylyl cyclase (sGC), rats were treated with ODQ (1 mg/kg, a sGC inhibitor) with or without […] (1-26) (1 μg/kg) prior to ischemia. ODQ abolished the reduction in infarct size caused by […] (1-26), but had no effect alone (FIG. 26A). Tissue accumulation of cGMP was measured after 120 min reperfusion from ischemic and non-ischemic myocardium. In these experiments, the cGMP was measured in the rat hearts by specific ELISA kits according to the manufacturer's instructions (Cayman Chemical, Ann Arbor, Mich.). The hearts (n=6/group) were excised after 120 min reperfusion and immediately frozen in liquid nitrogen, then stored at -80° C. until assayed. Frozen myocardial tissue samples in liquid nitrogen were ground to a fine powder in a stainless-steel mortar. Frozen tissue was dropped into 5-10 volumes (ml of solution/gram of tissue) of 5% trichloroacetic acid (TCA) in water. The samples were homogenized on ice […] using a polytron-type homogenizer. Centrifugation was at 30,000 r.p.m. at room temperature and the supernatant was collected for quantitative immunoassay of cGMP. […] (1-26) treatment group when compared to the control and sham treated groups respectively (FIG. 26B). No difference in cGMP tissue content was observed between the ischemic and non-ischemic zones within the control groups, however, […]

For data set [5], the system named is Akt (Ser473), endothelial NOS (Ser1177). The data set can be described thus: immunoblot of phospho-Akt and phospho-eNOS in left ventricle after ischemia-reperfusion. The class given is in vivo, rat. The protocol:
To determine whether the cardioprotective effect of parstatin (1-26) is mediated through the PI3K/Akt pathway, rats were treated with wortmannin (15 μg/Kg, a potent and specific PI3K inhibitor) alone or in combination with parstatin fragment 1-26 (1 μg/Kg). Wortmannin abrogated the cardioprotective effects of parstatin (1-26) (FIG. 24B). In addition, the left ventricular free wall tissue was homogenized and immunoblot analysis was performed using an anti-phospho-Akt (Ser473) primary antibody (Cell Signaling Technology, Danvers, Mass.). […] Co-treatment with wortmannin blocked parstastin (1-26)-mediated Akt phorsphorylation (FIG. 24C).
as §1

For data set [6], the system named is HUVEC cells. The data set can be described thus: Fibrin gel in vitro angiogenesis assay. The note with it: VEGF/bFGF-induced, 24 h; other peptides 10 μM. The class given is cell-based, human. How it is done:
The ability of endothelial cells to form three-dimensional structures was analyzed using a Fibrin gel in vitro angiogenesis assay kit (Chemicon International Inc. Temecula, Calif.). Fibrin gels were formed in 48-well plates by mixing fibrinogen and thrombin solutions, according to manufacturer instructions. Cells (40,000 cells/well) were then added and cultured in medium containing 2% FBS for 18 h. After the addition of a second layer of fibrin gel, endothelial cells sandwiched within fibrin gels were cultured in serum-free medium containing 0.5% bovine serum albumin (BSA) and the combination of VEGF/bFGF for 24 h. Where indicated, parstatin (1-41) or other indicated peptides were added. Capillary-like network was photographed and measured.

In data set [7] the test system is HUVEC cells. The data set can be described thus: MTT cell proliferation assay. The class given is cell-based, human. Particulars: 10 μM. The protocol:
Cell proliferation was evaluated using a 3-(4,5-[…])-2,5-diphenyltetrazolium bromide (MTT, Sigma-Aldrich, St. Louis, Mo.) assay. Endothelial cells (10,000/well) were seeded in 24-well tissue culture plates and incubated with growth medium for 24 h. Cells were then treated with the vehicle or the indicated peptides in medium containing 5% FBS for 1 to 3 days. After 24, 48, or 72 hours, MTT solution (5 mg/ml) was added to each well and incubated for 3 h at 37° C. The blue formazan crystals were solubilized by addition of DMSO and absorbance at 450 nm was recorded using a 96-well plate reader.

Where [8] appears, read: parstatin (1-26) IV 10 seconds after initiation of reperfusion.

As to “MGPRRLLLVAACFSLCGPLLSARTRA (listed as Homo sapiens) [parstatin (1-26)]”, the “histological scoring of renal injury” value in data set [1] (10 μg/Kg) was “significantly reduced”. In data set [1] (10 μg/Kg IV pre-ischemic), the “reduction of FENa” value turned out to be 66% and the “reduction of serum creatinine” value was 27%. Besides, in data set [1] (setting [8]), the “reduction of FENa” value came out at 72% and the “reduction of serum creatinine” value came to 30%. Besides, in data set [2], the “NO levels in non-ischemic tissue compared to control and sham rats” value is listed as “No differences”. Besides, in data set [2] (120 min reperfusion), the “NO content in the ischemic tissue over control values” came to 1.4 fold and the “NO content in the ischemic tissue over sham treated values” stood at 2.0 fold. Also, the “reduction in infarct size” value in data set [3] (10 seconds after initiation of reperfusion) was determined as 62%. The “reduction in infarct size” value in data set [3] (15 min after the onset of ischemia) amounted to 73%. The “infarct sparing effect with L-NMA” value in data set [3] (1 μg/Kg, L-NMA 15 μg/Kg) is listed as “abolished”. Further, the “infarct size in the presence of pertussis toxin” value in data set [3] (1 μg/Kg, pertussis toxin 25 μg/Kg 48 hours prior) was “unable to reduce infarct size”. Also, the “cardioprotective effects with wortmannin” value in data set [3] (1 μg/Kg, wortmannin 15 μg/Kg) was “abrogated”. Also, in data set [3] (1 μg/kg, ODQ 1 mg/kg), the “reduction in infarct size with ODQ” value was “abolished”. In addition, the “reduction in infarct size compared with control” value in data set [3] (10 μg/Kg IV 15 min prior to ischemia) is listed as 78%. In addition, in data set [3] (10 μg/Kg IV 15 min prior to ischemia, 30 min ischemia, 120 min reperfusion), the infarct size is 13±1 % of the area at risk. Moreover, the “cardioprotective effects with 5-HD” value in data set [3] (5-HD 10 mg/Kg) is recorded as “blocked”. In addition, in data set [3] (HMR 1098 6 mg/kg), the “cardioprotective effects with HMR 1098” value was “blocked”. For the same sequence, the cardioprotection with atractyloside result in data set [3] (atractyloside 3 mg/Kg) is recorded as “partial blockage”. Moreover, the “cardioprotective effect with glibenclamide” value in data set [3] (glibenclamide 3 mg/kg) is recorded as “completely diminished”. For the same sequence, the “baseline hemodynamics (heart rate, blood pressures) between groups” value in data set [3] (rat, in vivo) is recorded as “no significant differences”. Further, in data set [4], the “cGMP production in the ischemic zone vs non-ischemic zone” value came to 2.2 fold, the “tissue accumulation of cGMP in the ischemic tissue compared to control” value is given as 4.6 fold and the “tissue accumulation of cGMP in the ischemic tissue compared to sham” value is reported as 10.9 fold. The “phosphorylation of Akt/Ser473” value in data set [5] (1 μg/kg pre-ischemic, 5 min reperfusion, vs control rats) was “increased phosphorylation”. The “endothelial NOS phosphorylation (Ser1177)” value in data set [5] (1 μg/kg, 5 min reperfusion) is on record as “increased endothelial NOS phosphorylation”. In addition, in data set [5] (wortmannin), the “Ser1177 phosphorylation with wortmannin” value is listed as “blocked”. In addition, the “Akt phosphorylation with wortmannin co-treatment” value in data set [5] (wortmannin 15 μg/kg) is given as “blocked”.

Take “TRARRPESKATNATLDPR (listed as Homo sapiens) [parstatin (24-41), 24-41 (18 amino acids) of human parstatin, hydrophilic fragment]”: the “capillary-like network (total capillary tube length) in fibrin gels” value with HUVEC cells [6] is “did not affect”. In addition, the HUVEC cell proliferation entry in the data set with HUVEC cells [7] is recorded as “without effect”.

The record behind these values is patent US9180163B2, “Parstatin peptides” (priority 2009, dated 2015).
